According to patent publication US10252997B2, “Monocyclic compound” (Takeda Pharmaceutical Company Limited, priority 2015, dated 2019):

Legend:
[1] = molecular target: T1, Human ACC1 (Homo sapiens, UniProt Q13085); assay: Measurement of ACC1 inhibitory activity (Malonyl-CoA produced, RapidFire-mass spectrometry); format: biochemical; conditions: 10 μM of the test compound; read-out: ACC1 inhibitory rate (%) at 10 μM
T1 construct: His6 (from vector pFAST-BacHTc; purified on Ni-NTA) (N); made in house; host or cells: SF-9 insect cells, recombinant baculovirus BAC-ACC1
Method: (1) Cloning of Human ACC1 Gene and Preparation of Recombinant Baculovirus
Human ACC1 gene was cloned by PCR using a human liver cDNA library (Clontech) as a template and Primer 1 and Primer 2 shown below. Primer 1 and Primer 2 were prepared by adding SalI, NotI restriction enzyme recognition sequences based on the information of the base sequence of human ACC1 gene (Genbank Accession U19822).
PCR was performed using Pyrobest DNA polymerase (TAKARA BIO INC.). The obtained PCR product was cloned to pT7 Blue vector (Novagen) and after confirmation of the base sequence, digested with restriction enzymes SalI and […]. The obtained DNA fragment was inserted into pFAST-BacHTc (Invitrogen) digested with restriction enzymes SalI and […] to give expression plasmid ACC1/pFAST-BacHTc.
Using the expression plasmid ACC1/pFAST-BacHTc and BAC-TO-BAC Baculovirus Expression System (Invitrogen), virus stock BAC-ACC1 of recombinant Baculovirus was prepared.
(2) Preparation of ACC1 Protein
SF-9 cells (Invitrogen) were inoculated to a medium (10 L) for insect cells (Sf-900IISFM medium (Invitrogen) containing 5% fetal bovine serum (Trace), 50 mg/L Gentamicin (Wako Pure Chemical Industries, Ltd.) and 0.1% Pluronic F-68 (Invitrogen)) at 1.0×10^6 cells/mL, and cultured with shaking in Wave Bioreactor (GE Healthcare) at 27° C., 20 rpm, rocking angle 100, oxygen concentration 30%.
On day 2 of the culture, recombinant Baculovirus BAC-ACC1 was added, and the cells were cultured for 3 days. The culture medium was centrifuged at 4000×g for 10 min to give virus-infected cells. The cells were washed with phosphate buffered saline (Invitrogen) and centrifuged under the same conditions. The obtained cells were cryopreserved at −80° C.
The cryopreserved cells were thawed in ice, and suspended in 800 mL of 25 mM HEPES buffer (pH 7.5) containing 10% Glycerol, 0.3 M NaCl, 1 mM EDTA, 25 mM Sodium β-Glycerophosphate and 1 mM Sodium Orthovanadate, and supplemented with Complete Protease Inhibitor (Roche). The obtained suspension was homogenized two times in a polytron homogenizer (Kinematica) at 20,000 rpm for 20 sec. The obtained cell disruption solution was clarified by centrifugation at 186,000×g for 60 min, and the supernatant was passed through Ni-NTA Superflow Cartridges (5 mL) (QUIAGEN). Furthermore, it was washed with 25 mM HEPES buffer (pH 7.5) containing 20 mM Imidazole and 0.3 M NaCl, and eluted with 25 mM HEPES buffer (pH 7.5) containing 250 mM Imidazol and 0.3 M NaCl. The eluate was concentrated by Amicon Ultra-15 (Nihon Millipore K.K.) having a fraction molecular weight of 50K. The obtained concentrate was subjected to gel filtration with 50 mM HEPES buffer (pH 7.5) containing 10 mM MgCl2, 2 mM dithiothreitol, 10 mM tripotassium citrate and 0.3 M NaCl by using HiLoad 26/60 Superdex200 prep grade gel filtration column (GE Healthcare) to give ACC1. The obtained ACC1 was cryopreserved at −80° C.
(3) Measurement of ACC1 Inhibitory Activity
ACC1 obtained in the above-mentioned (2) was diluted with an enzyme reaction buffer (50 mM HEPES (pH 7.5), 10 mM MgCl2, 10 mM Tripottasium Citrate, 2 mM Dithiothreitol, 0.001% Fatty acid free BSA) to a concentration of 0.2 μg/ml, and the mixture was added to each well of a 384 well assay plate by 10 μl. A test compound dissolved in dimethyl sulfoxide (DMSO) was diluted with an enzyme reaction buffer, and the resulting solution (5 μl) was added to each well. The mixture was incubated at room temperature for 60 min. Then, a substrate solution (50 mM KHCO3, 200 μM ATP, 200 μM Acetyl-CoA, 5 μl) was added to each well, and the mixture was reacted at room temperature for 30 min. The reaction was quenched by adding a reaction quenching liquid (1.3% formic acid, 0.2 μM Malonyl-^13C3-CoA) by 60 μL each to the obtained reaction mixtures (test compound addition group).
In addition, a reaction was performed in the same manner as above and without adding the test compound (test compound non-addition group). […]

[2] = tested on: HCT116 cells; assay: Growth inhibitory activity on HCT116 cell (CellTiter-Glo); format: cell-based; conditions: Homo sapiens, HCT-116, 72 h; test compound 1 μM, 3 days; read-out: HCT116 cell proliferation inhibitory rate (%) at 1 μM
Method: The growth inhibitory activity of the compound on HCT116 cell was evaluated by the following method.
HCT116 cells were seeded in a 384 well blackplate at 900 cells/[…]/well, and maintained in an assay medium (RPMI medium (Wako) containing 2% fetal bovine serum, 50 Unit/mL penicillin and […] streptomycin (Invitrogen)). The next day, a test compound dissolved in dimethyl sulfoxide (DMSO) was diluted with the assay medium, and the obtained compound solution was added by […] to each well of a plate containing HCT116 cells, and incubated at 37° C., 5% CO2 (test compound addition group).
A similar reaction was performed without adding a test compound (test compound non-addition group).
Furthermore, a similar reaction was performed under the conditions without adding HCT116 cell and a test compound (control group).
After 3 days, […] of a CellTiter-Glo reagent (Promega KK) was added to the well, and the mixture was stirred for 10 min. Thereafter, the luminescence value of each well was measured by the EnVision™ multilabel counter (Perkin Elmer Inc.).
The HCT116 cell proliferation inhibitory rate (%) of the test compound was determined by the following calculation formula. (1−(luminescence of test compound addition group−luminescence of control group)÷(luminescence of test compound non-addition group−luminescence of control group))×100
The HCT116 cell proliferation inhibitory rates (%) of the test compound (1 μM) are shown below.

| inhibition at 10 µM [1] [%] | Structure (SMILES) | inhibition at 1 µM [2] [%] |
| --- | --- | --- |
| 83 | CC(=O)NC(C)c1ccc(OCc2ccc(Oc3cccc(OCC4CC4)c3)cc2F)cc1 (stereo not drawn) [Example 19, N-(1-(4-((4-(3-(cyclopropylmethoxy)phenoxy)-2-fluorobenzyl)oxy)phenyl)ethyl)acetamide] | 15 |
| 99 | CC(=O)N[C@@H](C)COc1cnc(-c2ccc(Oc3cccc(OCC4CC4)c3)cc2)o1 [Example 30, N-((2S)-1-((2-(4-(3-(cyclopropylmethoxy)phenoxy)phenyl)-1,3-oxazol-5-yl)oxy)propan-2-yl)acetamide] | 28 |
| 97 | CC(=O)NC(C)CCc1cnc(-c2ccc(Oc3cccc(OCC4CC4)c3)cc2)o1 (stereo not drawn) [Example 32, N-(4-(2-(4-(3-(cyclopropylmethoxy)phenoxy)phenyl)-1,3-oxazol-5-yl)butan-2-yl)acetamide] | 30 |
| 78 | CC(=O)NC(C)c1cnc(OCc2ccc(Oc3cccc(OCC4CC4)c3)cc2F)cn1 (stereo not drawn) [Example 35, N-(1-(5-((4-(3-(cyclopropylmethoxy)phenoxy)-2-fluorobenzyl)oxy)pyrazin-2-yl)ethyl)acetamide] |  |
| 82 | CC(=O)NC(C)c1ccc(OCc2c(F)cc(Oc3cccc(OCC4CC4)c3)cc2F)cc1 (stereo not drawn) [Example 39, N-(1-(4-((4-(3-(cyclopropylmethoxy)phenoxy)-2,6-difluorobenzyl)oxy)phenyl)ethyl)acetamide] | 26 |
| 85 | CC(=O)NC(C)c1ccc(OCc2ccc(Oc3cccc(OCC4CC4)c3)cc2F)nc1 (stereo not drawn) [Example 42, N-(1-(6-((4-(3-(cyclopropylmethoxy)phenoxy)-2-fluorobenzyl)oxy)pyridin-3-yl)ethyl)acetamide] | 10 |
| 94 | CC(=O)NC(C)c1cnc(OCc2c(F)cc(Oc3cccc(OCC4CC4)c3)cc2F)cn1 (stereo not drawn) [Example 43, N-(1-(5-((4-(3-(cyclopropylmethoxy)phenoxy)-2,6-difluorobenzyl)oxy)pyrazin-2-yl)ethyl)acetamide] |  |
| 95 | CC(=O)NC(C)CCc1cc(-c2ccc(Oc3cccc(OCC4CC4)c3)cc2)no1 (stereo not drawn) [Example 46, N-(4-(3-(4-(3-(cyclopropylmethoxy)phenoxy)phenyl)-1,2-oxazol-5-yl)butan-2-yl)acetamide] | 20 |
| 96 | CC(=O)NC(C)CCc1ccn(-c2ccc(Oc3cccc(OCC4CC4)c3)cc2)n1 (stereo not drawn) [Example 48, N-(4-(1-(4-(3-(cyclopropylmethoxy)phenoxy)phenyl)-1H-pyrazol-3-yl)butan-2-yl)acetamide] | 14 |
| 99 | CC(=O)NC(C)CC(=O)c1cnc(-c2ccc(Oc3cccc(OCC4CC4)c3)cc2)o1 (stereo not drawn) [Example 64, N-(4-(2-(4-(3-(cyclopropylmethoxy)phenoxy)phenyl)-1,3-oxazol-5-yl)-4-oxobutan-2-yl)acetamide] | 35 |
| 92 | CC(=O)N[C@@H](C)COc1cc(-c2ccc(Oc3cccc(OCC4CC4)c3)cc2)no1 [Example 67, N-((2S)-1-((3-(4-(3-(cyclopropylmethoxy)phenoxy)phenyl)-1,2-oxazol-5-yl)oxy)propan-2-yl)acetamide] | 29 |
| 96 | CC(=O)NC(C)c1ccc(OCc2c(F)cc(Oc3cccc(OCC4CC4)c3)cc2F)nc1 (stereo not drawn) [Example 68, N-(1-(6-((4-(3-(cyclopropylmethoxy)phenoxy)-2,6-difluorobenzyl)oxy)pyridin-3-yl)ethyl)acetamide] | 25 |
| 96 | CC(=O)NC(C)c1ccc(OCc2c(F)cc(Oc3cccc(OCC4CC4)c3)cc2F)cn1 (stereo not drawn) [Example 69, N-(1-(5-((4-(3-(cyclopropylmethoxy)phenoxy)-2,6-difluorobenzyl)oxy)pyridin-2-yl)ethyl)acetamide] | 28 |
| 98 | CC(=O)NC(C)c1cnc(OCc2c(F)cc(Oc3cccc(OCC4CC4)c3)cc2F)c(F)c1 (stereo not drawn) [Example 73, N-(1-(6-((4-(3-(cyclopropylmethoxy)phenoxy)-2,6-difluorobenzyl)oxy)-5-fluoropyridin-3-yl)ethyl)acetamide] | 31 |
| 100 | CC(=O)N[C@@H](C)COc1cnc(-c2ccc(Oc3cccc(OCC4CC4)c3)nc2)o1 [Example 99, N-((2S)-1-((2-(6-(3-(cyclopropylmethoxy)phenoxy)pyridin-3-yl)-1,3-oxazol-5-yl)oxy)propan-2-yl)acetamide] |  |
| 98 | C[C@@H](COc1cnc(-c2ccc(Oc3cccc(OCC4CC4)c3)nc2)o1)NC(N)=O [Example 101, 1-((2S)-1-((2-(6-(3-(cyclopropylmethoxy)phenoxy)pyridin-3-yl)-1,3-oxazol-5-yl)oxy)propan-2-yl)urea] |  |
| 100 | CC(=O)N[C@@H](C)COc1cnc(-c2ccc(Oc3cccc(OCC4CC4)c3)cn2)o1 [Example 102, N-((2S)-1-((2-(5-(3-(cyclopropylmethoxy)phenoxy)pyridin-2-yl)-1,3-oxazol-5-yl)oxy)propan-2-yl)acetamide] |  |
| 98 | CC(=O)NC(C)CC(=O)c1cnn(-c2ccc(Oc3cccc(OCC4CC4)c3)nc2)c1 (stereo not drawn) [Example 103, N-(4-(1-(6-(3-(cyclopropylmethoxy)phenoxy)pyridin-3-yl)-1H-pyrazol-4-yl)-4-oxobutan-2-yl)acetamide] |  |
| 95 | C[C@@H](COc1cnc(-c2ccc(Oc3cccc(OCC4CC4)c3)cn2)o1)NC(N)=O [Example 104, 1-((2S)-1-((2-(5-(3-(cyclopropylmethoxy)phenoxy)pyridin-2-yl)-1,3-oxazol-5-yl)oxy)propan-2-yl)urea] |  |
| 100 | CC(=O)NC(C)CC(=O)c1cnc(-c2ccc(Oc3cccc(OCC4CC4)c3)nc2)o1 (stereo not drawn) [Example 105, N-(4-(2-(6-(3-(cyclopropylmethoxy)phenoxy)pyridin-3-yl)-1,3-oxazol-5-yl)-4-oxobutan-2-yl)acetamide] |  |
| 98 | CC(=O)N[C@@H](C)COc1cnc(-c2cnc(Oc3cccc(OCC4CC4)c3)cc2C)o1 [Example 106, N-((2S)-1-((2-(6-(3-(cyclopropylmethoxy)phenoxy)-4-methylpyridin-3-yl)-1,3-oxazol-5-yl)oxy)propan-2-yl)acetamide] |  |
